Source: PubChem BioAssay (NCI)
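Each compound was tested at five concentrations against cells in 96-well plates for 48 hours. TGI is the concentration that stops growth completely.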

Assays:
Experiment in all cases: growth of human tumour cells (NCI), 48 h
[1] = system: UACC-62 melanoma
[2] = system: U251 CNS
[3] = system: IGROV1 ovarian
[4] = system: SK-MEL-2 melanoma
[5] = system: CAKI-1 renal
[6] = system: HCT-116 colon
[7] = system: SN12C renal
[8] = system: SNB-19 CNS
[9] = system: MDA-N
[10] = system: OVCAR-8 ovarian
[11] = system: SK-OV-3 ovarian
[12] = system: COLO 205 colon
[13] = system: BT-549 breast
[14] = system: UO-31 renal
[15] = system: MDA-MB-231 breast
[16] = system: OVCAR-5 ovarian
[17] = system: M14 melanoma
[18] = system: NCI/ADR-RES ovarian
[19] = system: RXF 393 renal
[20] = system: SF-539 CNS
[21] = system: DU-145 prostate
[22] = system: HCT-15 colon
[23] = system: NCI-H460 lung
[24] = system: SF-295 CNS
[25] = system: SW-620 colon
[26] = system: HOP-92 NSCLC
[27] = system: HOP-62 NSCLC
[28] = system: HL-60(TB) leukemia
[29] = system: UACC-257 melanoma
[30] = system: ACHN renal
[31] = system: MCF7 breast
[32] = system: CCRF-CEM leukemia
[33] = system: HCC-2998 colon
[34] = system: SF-268 CNS
[35] = system: HT29 colon
[36] = system: NCI-H23 lung
[37] = system: EKVX NSCLC
[38] = system: 786-0 renal
[39] = system: MALME-3M melanoma
[40] = system: TK-10 renal
[41] = system: KM12 colon
[42] = system: SK-MEL-5 melanoma
[43] = system: T-47D breast
[44] = system: OVCAR-3 ovarian
[45] = system: NCI-H522 lung
[46] = system: HS 578T breast
[47] = system: OVCAR-4 ovarian
[48] = system: LOX IMVI melanoma
[49] = system: SNB-75 CNS
[50] = system: A549 NSCLC
[51] = system: A498 renal
[52] = system: MDA-MB-435
[53] = system: RPMI-8226 leukemia
[54] = system: SK-MEL-28 melanoma
[55] = system: PC-3 prostate
[56] = system: NCI-H226 lung
[57] = system: MOLT-4 leukemia
[58] = system: SR leukemia

CCc1cc(O)c(Cl)c(C)c1Cl
TGI [1]: 35.1 µM | TGI [2]: 38.1 µM | TGI [3]: 33.8 µM | TGI [4]: > 100 µM | TGI [5]: 32.7 µM | TGI [6]: 31.5 µM | TGI [7]: 29.5 µM | TGI [8]: 95.6 µM | TGI [9]: 29.9 µM | TGI [10]: 40.6 µM | TGI [11]: 34.5 µM | TGI [12]: 41.4 µM | TGI [13]: 36 µM | TGI [14]: 33.2 µM | TGI [15]: 81.1 µM | TGI [16]: 52.2 µM | TGI [17]: 63.6 µM | TGI [18]: 50.1 µM | TGI [19]: 28.7 µM | TGI [20]: 34.8 µM | TGI [21]: 31.2 µM | TGI [22]: 34.6 µM | TGI [23]: 33.7 µM | TGI [24]: 42.5 µM | TGI [25]: 43.6 µM | TGI [26]: 33.7 µM | TGI [27]: 33.2 µM | TGI [28]: > 100 µM | TGI [29]: 35.6 µM | TGI [30]: 31.5 µM | TGI [31]: 61.6 µM | TGI [32]: 50.1 µM | TGI [33]: 32.7 µM | TGI [34]: > 100 µM | TGI [35]: 39.1 µM | TGI [36]: 36.9 µM | TGI [37]: 33.7 µM | TGI [38]: 30.8 µM | TGI [39]: 42.7 µM | TGI [40]: 35.9 µM | TGI [41]: 28.5 µM | TGI [42]: 33.3 µM | TGI [43]: > 100 µM | TGI [44]: 33.5 µM | TGI [45]: 37.6 µM | TGI [46]: 67.7 µM | TGI [47]: 28.5 µM | TGI [48]: 31.8 µM | TGI [49]: 34.1 µM | TGI [50]: > 100 µM | TGI [51]: 28.2 µM | TGI [52]: 30.1 µM | TGI [53]: 42.3 µM | TGI [54]: 36.6 µM | TGI [55]: 40.2 µM

Cn1c(-c2ccc(/C=N\N3CCN(/N=C/c4ccc(-c5c[n+]6ccccc6n5C)cc4)CC3)cc2)c[n+]2ccccc12
TGI [1]: > 100 µM | TGI [2]: > 100 µM | TGI [3]: > 100 µM | TGI [4]: > 100 µM | TGI [5]: > 100 µM | TGI [6]: > 100 µM | TGI [7]: > 100 µM | TGI [8]: > 100 µM | TGI [9]: > 100 µM | TGI [10]: > 100 µM | TGI [11]: > 100 µM | TGI [12]: > 100 µM | TGI [13]: > 100 µM | TGI [14]: > 100 µM | TGI [15]: 75 µM | TGI [16]: > 100 µM | TGI [17]: > 100 µM | TGI [18]: > 100 µM | TGI [19]: 60.9 µM | TGI [20]: > 100 µM | TGI [21]: > 100 µM | TGI [22]: > 100 µM | TGI [23]: > 100 µM | TGI [24]: 78.6 µM | TGI [25]: > 100 µM | TGI [26]: 84.6 µM | TGI [28]: 56.9 µM | TGI [29]: > 100 µM | TGI [30]: > 100 µM | TGI [31]: > 100 µM | TGI [32]: > 100 µM | TGI [34]: > 100 µM | TGI [35]: > 100 µM | TGI [36]: > 100 µM | TGI [37]: > 100 µM | TGI [56]: > 100 µM | TGI [38]: 70.7 µM | TGI [57]: > 100 µM | TGI [40]: > 100 µM | TGI [41]: > 100 µM | TGI [42]: > 100 µM | TGI [43]: > 100 µM | TGI [44]: > 100 µM | TGI [45]: > 100 µM | TGI [46]: 92.8 µM | TGI [47]: > 100 µM | TGI [48]: > 100 µM | TGI [49]: > 100 µM | TGI [50]: > 100 µM | TGI [51]: 42.8 µM | TGI [52]: > 100 µM | TGI [53]: > 100 µM | TGI [55]: > 100 µM | TGI [58]: > 100 µM
